Experimental data: patent publication US20050239656A1, “Pyridine compounds or salts thereof and herbicides containing the same” (priority 2002, published 2005)

Experiments:
[1] = system: rice (var. Nihonbare); experiment: Test Example 3: paddy pot test, transplanted rice; type: in vivo, Oryza sativa L.; settings: applied 4th day after transplantation, visually observed 21st day after application, 0 = non-treated, 100 = complete kill
Text: (§1) Paddy field soil was put into a 1/1,000,000 ha pot, and seed of barnyardgrass and japanese bulrush were sown and slightly covered with soil. Then, the pot was left to stand still in a greenhouse in a state where the depth of flooding water was from 0.5 to 1 cm, and one day or two days later, tubers of japanese ribbon wapato were planted. Thereafter, the depth of flooding water was maintained at a level of from 3 to 4 cm, and when barnyardgrass and japanese bulrush reached a 0.5 leaf stage and japanese ribbon wapato reached a primary leaf stage, an aqueous diluted solution of a wettable powder or emulsifiable concentrate having the compound of the present invention formulated in accordance with a usual formulation method, was uniformly applied under submerged conditions by a pipette so that the dose of the active ingredient would be at a predetermined level. On the other hand, paddy field soil was put into a 1/1,000,000 ha pot and puddled and leveled, and the depth of flooding water was from 3 to 4 cm. Next day, rice (var. Nihonbare) of 2 leaf stage was transplanted in a depth of 3 cm. On the 4th day after the transplantation, the compound of the present invention was applied in the same manner as described above. On the 14 days after the application of the herbicide, the growth of barnyard grass, japanese burlrush and japanese ribbon wapato was visually observed and on the 21st day after the application of the herbicide, the growth of rice was visually observed, and the herbicidal effects were evaluated by the growth-controlling degrees (%) ranging from 0 (equivalent to the non-treated plot) to 100 (complete kill), whereby the results shown in Table 5 were obtained.

[2] = system: japanese bulrush; experiment: Test Example 3: paddy pot test, application under submerged conditions; type: in vivo, Scirpus juncoides; settings: submerged application at 0.5 leaf stage, visually observed 14 days after application, 0 = non-treated, 100 = complete kill
Text: as §1, with “the” for “the other hand, paddy field soil was put into a 1/1,000,000 ha pot and puddled and leveled, and the depth of flooding water was from 3 to 4 cm. Next day, rice (var. Nihonbare) of 2 leaf stage was transplanted in a depth of 3 cm. On the 4th day after the transplantation, the compound of the present invention was applied in the same manner as described above. On the”

[3] = system: japanese ribbon wapato; experiment: as above; type: in vivo, Sagittaria pygniaea; settings: submerged application at primary leaf stage, visually observed 14 days after application, 0 = non-treated, 100 = complete kill
Text: as §1, with “the” for “the other hand, paddy field soil was put into a 1/1,000,000 ha pot and puddled and leveled, and the depth of flooding water was from 3 to 4 cm. Next day, rice (var. Nihonbare) of 2 leaf stage was transplanted in a depth of 3 cm. On the 4th day after the transplantation, the compound of the present invention was applied in the same manner as described above. On the”

[4] = system: barnyardgrass; experiment: as above; type: in vivo, Echinochloa crus-galli L.; settings: submerged application at 0.5 leaf stage, visually observed 14 days after application, 0 = non-treated, 100 = complete kill
Text: as §1, with “the” for “the other hand, paddy field soil was put into a 1/1,000,000 ha pot and puddled and leveled, and the depth of flooding water was from 3 to 4 cm. Next day, rice (var. Nihonbare) of 2 leaf stage was transplanted in a depth of 3 cm. On the 4th day after the transplantation, the compound of the present invention was applied in the same manner as described above. On the”

Row | Compound | Growth controlling degree (%) Rice ([1]; active ingredient 250 g/ha) | Growth controlling degree (%) Japanese bulrush ([2]; active ingredient 250 g/ha) | Growth controlling degree (%) Japanese ribbon wapato ([3]; active ingredient 250 g/ha) | Growth controlling degree (%) Barnyardgrass ([4]; active ingredient 250 g/ha) | also measured
1 | Cc1ccccc1CC(=O)N(C)C(c1cnccc1Cl)C(C)C (centres unmarked) [I-83] | 10% | 98% | 20% | 98% | 
2 | CC(C)C(c1cnccc1C(F)(F)F)N(C)C(=O)Cc1ccc2ccccc2c1 (centres unmarked) [I-58] |  |  |  |  | Growth controlling degree (%) Rice ([1]; active ingredient 500 g/ha): 35%; Growth controlling degree (%) Japanese bulrush ([2]; active ingredient 500 g/ha): 40%; Growth controlling degree (%) Japanese ribbon wapato ([3]; active ingredient 500 g/ha): 0%; Growth controlling degree (%) Barnyardgrass ([4]; active ingredient 500 g/ha): 100%
3 | CC(C)C(c1cnccc1Cl)N(C)C(=O)Cc1ccc2ccccc2c1 (centres unmarked) [I-59] |  |  |  |  | Growth controlling degree (%) Rice ([1]; active ingredient 500 g/ha): 10%; Growth controlling degree (%) Japanese bulrush ([2]; active ingredient 500 g/ha): 10%; Growth controlling degree (%) Japanese ribbon wapato ([3]; active ingredient 500 g/ha): 60%; Growth controlling degree (%) Barnyardgrass ([4]; active ingredient 500 g/ha): 90%
4 | Cc1cc(F)ccc1CC(=O)N(C)C(c1cnccc1C(F)(F)F)C(C)C (racemic) [I-116] |  |  |  |  | Growth controlling degree (%) Rice ([1]; active ingredient 500 g/ha): 10%; Growth controlling degree (%) Japanese bulrush ([2]; active ingredient 500 g/ha): 95%; Growth controlling degree (%) Japanese ribbon wapato ([3]; active ingredient 500 g/ha): 50%; Growth controlling degree (%) Barnyardgrass ([4]; active ingredient 500 g/ha): 100%
5 | Cc1cccc(CC(=O)N(C)C(c2cnccc2Cl)C(C)C)c1 (centres unmarked) [I-88] | 0% | 70% | 50% | 100% | 
6 | CC(C)C(c1cnccc1C(F)(F)F)N(C)C(=O)Cc1ccc(-c2ccccc2)cc1 (centres unmarked) [I-9] |  |  |  |  | Growth controlling degree (%) Rice ([1]; active ingredient 500 g/ha): 0%; Growth controlling degree (%) Japanese bulrush ([2]; active ingredient 500 g/ha): 10%; Growth controlling degree (%) Japanese ribbon wapato ([3]; active ingredient 500 g/ha): 30%; Growth controlling degree (%) Barnyardgrass ([4]; active ingredient 500 g/ha): 100%
7 | COc1ccccc1CC(=O)N(C)C(c1cnccc1C(F)(F)F)C(C)C (centres unmarked) [I-35] | 0% | 95% | 70% | 100% | 
8 | CC(C)C(c1cnccc1Cl)N(C)C(=O)Cc1ccc(Cl)c(Cl)c1 (centres unmarked) [I-80] | 20% | 90% | 20% | 98% | 
9 | CCN(C(=O)Cc1cc(F)ccc1F)C(c1cnccc1C(F)(F)F)C(C)C (centres unmarked) [I-98] | 10% | 80% | 40% | 100% | 
10 | CC(C)C(c1cnccc1Cl)N(C)C(=O)Cc1ccc(F)cc1F (centres unmarked) [I-71] |  |  |  |  | Growth controlling degree (%) Rice ([1]; active ingredient 125 g/ha): 0%; Growth controlling degree (%) Japanese bulrush ([2]; active ingredient 125 g/ha): 90%; Growth controlling degree (%) Japanese ribbon wapato ([3]; active ingredient 125 g/ha): 40%; Growth controlling degree (%) Barnyardgrass ([4]; active ingredient 125 g/ha): 90%
11 | CC(C)C(c1cnccc1C(F)(F)F)N(C)C(=O)C=Cc1ccc(Cl)cc1 (centres unmarked) [I-171] | 0% | 98% | 0% | 60% | 
12 | CSc1ccc(CC(=O)N(C)C(c2cnccc2C(F)(F)F)C(C)C)cc1 (centres unmarked) [I-37] | 0% | 50% | 10% | 100% | 
13 | CC(C)C(c1cnccc1C(F)(F)F)N(C)C(=O)COc1ccccc1Cl (centres unmarked) [I-235] | 0% | 90% | 60% | 100% | 
14 | CC(C)C(c1cnccc1C(F)(F)F)N(C)C(=O)COc1ccc(Cl)cc1Cl (centres unmarked) [I-236] | 0% | 80% | 70% | 95% | 
15 | CC(C)C(c1cnccc1Cl)N(C)C(=O)Cc1c(F)ccc(F)c1F (centres unmarked) [I-89] | 0% | 95% | 40% | 100% | 
16 | CC(=CC(=O)N(C)C(c1cnccc1C(F)(F)F)C(C)C)c1ccccc1 (centres unmarked) [I-174] | 0% | 95% | 0% | 10% | 
17 | CC(C)C(c1cnccc1C(F)(F)F)N(C)C(=O)COc1cc([N+](=O)[O-])c(Cl)cc1Cl (centres unmarked) [I-253] | 10% | 20% | 0% | 90% | 
18 | CC(C)C(c1cnccc1C(F)(F)F)N(C)C(=O)Cc1cc(Cl)cc(Cl)c1 (centres unmarked) [I-91] | 0% | 20% | 20% | 90% | 
19 | CC(C)C(c1cnccc1C(F)(F)F)N(C)C(=O)COc1ccc(Cl)cc1 (centres unmarked) [I-248] | 0% | 98% | 20% | 98% | 
20 | CC(C)C(c1cnccc1C(F)(F)F)N(C)C(=O)C=COc1ccccc1 (centres unmarked) [I-166, N-methyl-N-[2-methyl-1-(4-trifluoromethylpyridin-3-yl)propyl]3-phenoxypropenamide] | 0% | 95% | 0% | 100% | 
21 | CC(C)C(c1cnccc1C(F)(F)F)N(C)C(=O)C1CCCC1 (centres unmarked) [I-212] | 30% | 98% | 80% | 100% | 
22 | CC(C)C(c1cnccc1C(F)(F)F)N(C)C(=O)C=C1CCCCC1 (centres unmarked) [I-177] | 20% | 98% | 20% | 60% | 
23 | CC(C)C(c1cnccc1Br)N(C)C(=O)Cc1ccccc1 (racemic) [I-110] | 0% | 90% | 20% | 98% | 
